Test results reported in the supplement of paper PMC10307832.

How the values were obtained:
Assay in all cases: relative viability (nuclei count vs DMSO), 5 days (fraction); higher = more cells survive
ABC-1 = tested on: ABC-1
Summary of the method: (§1)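 Five library-drug doses in √10 steps were combined with a fixed anchor-drug dose, or a single drug was given alone, by pin tool to lung cancer cell lines in 1536-well plates the day after seeding. Nuclei were stained and counted after 5 days. Relative viability is the nuclei count in treated wells over that in vehicle wells, taken as the median of duplicate plates.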

CAL-12T = tested on: CAL-12T
Summary of the method: as §1

COR-L 105 = tested on: COR-L 105
Summary of the method: as §1

ChaGo-K-1 = tested on: ChaGo-K-1
Summary of the method: as §1

EMC-BAC-2 = tested on: EMC-BAC-2
Summary of the method: as §1

EPLC-272H = tested on: EPLC-272H
Summary of the method: as §1

HCC-15 = tested on: HCC-15
Summary of the method: as §1

HCC-78 = tested on: HCC-78
Summary of the method: as §1

HOP-62 = tested on: HOP-62
Summary of the method: as §1

LXF-289 = tested on: LXF-289
Summary of the method: as §1

NCI-H1666 = tested on: NCI-H1666
Summary of the method: as §1

NCI-H1755 = tested on: NCI-H1755
Summary of the method: as §1

NCI-H1915 = tested on: NCI-H1915
Summary of the method: as §1

NCI-H1975 = tested on: NCI-H1975
Summary of the method: as §1

NCI-H2023 = tested on: NCI-H2023
Summary of the method: as §1

NCI-H2085 = tested on: NCI-H2085
Summary of the method: as §1

NCI-H2126 = tested on: NCI-H2126
Summary of the method: as §1

NCI-H3122 = tested on: NCI-H3122
Summary of the method: as §1

NCI-H322M = tested on: NCI-H322M
Summary of the method: as §1

NCI-H358 = tested on: NCI-H358
Summary of the method: as §1

NCI-H441 = tested on: NCI-H441
Summary of the method: as §1

UMC-11 = tested on: UMC-11
Summary of the method: as §1

## O=c1cc(N2CCOCC2)oc2c(-c3cccc4c3sc3ccccc34)cccc12 + COc1cccc2cc(-c3nc([C@H]4CC[C@H](C(=O)O)CC4)n4ncnc(N)c34)[nH]c12 [OSI-027] (partner 0.5 µM)
ABC-1; first compound 0.01 µM
  relative viability: 0.483
ABC-1; first compound 0.03162 µM
  relative viability: 0.436
ABC-1; first compound 0.1 µM
  relative viability: 0.557
ABC-1; first compound 0.3162 µM
  relative viability: 0.523
ABC-1; first compound 1 µM
  relative viability: 0.501
CAL-12T; first compound 0.01 µM
  relative viability: 0.69
CAL-12T; first compound 0.03162 µM
  relative viability: 0.71
CAL-12T; first compound 0.1 µM
  relative viability: 0.599
CAL-12T; first compound 0.3162 µM
  relative viability: 0.728
CAL-12T; first compound 1 µM
  relative viability: 0.707
COR-L 105; first compound 0.01 µM
  relative viability: 0.668
COR-L 105; first compound 0.03162 µM
  relative viability: 0.825
COR-L 105; first compound 0.1 µM
  relative viability: 0.656
COR-L 105; first compound 0.3162 µM
  relative viability: 0.786
COR-L 105; first compound 1 µM
  relative viability: 0.553
ChaGo-K-1; first compound 0.01 µM
  relative viability: 0.488
ChaGo-K-1; first compound 0.03162 µM
  relative viability: 0.681
ChaGo-K-1; first compound 0.1 µM
  relative viability: 0.363
ChaGo-K-1; first compound 0.3162 µM
  relative viability: 0.706
ChaGo-K-1; first compound 1 µM
  relative viability: 0.628
EMC-BAC-2; first compound 0.01 µM
  relative viability: 0.409
EMC-BAC-2; first compound 0.03162 µM
  relative viability: 0.427
EMC-BAC-2; first compound 0.1 µM
  relative viability: 0.419
EMC-BAC-2; first compound 0.3162 µM
  relative viability: 0.423
EMC-BAC-2; first compound 1 µM
  relative viability: 0.385
EPLC-272H; first compound 0.01 µM
  relative viability: 0.33
EPLC-272H; first compound 0.03162 µM
  relative viability: 0.296
EPLC-272H; first compound 0.3162 µM
  relative viability: 0.332
EPLC-272H; first compound 1 µM
  relative viability: 0.314
HCC-15; first compound 0.01 µM
  relative viability: 0.674
HCC-15; first compound 0.03162 µM
  relative viability: 0.807
HCC-15; first compound 0.1 µM
  relative viability: 0.774
HCC-15; first compound 0.3162 µM
  relative viability: 0.688
HCC-15; first compound 1 µM
  relative viability: 0.67
HCC-78; first compound 0.01 µM
  relative viability: 0.369
HCC-78; first compound 0.03162 µM
  relative viability: 0.362
HCC-78; first compound 0.1 µM
  relative viability: 0.297
HCC-78; first compound 0.3162 µM
  relative viability: 0.347
HCC-78; first compound 1 µM
  relative viability: 0.342
HOP-62; first compound 0.01 µM
  relative viability: 0.787
HOP-62; first compound 0.03162 µM
  relative viability: 0.842
HOP-62; first compound 0.1 µM
  relative viability: 0.821
HOP-62; first compound 0.3162 µM
  relative viability: 0.81
HOP-62; first compound 1 µM
  relative viability: 0.804
LXF-289; first compound 0.01 µM
  relative viability: 0.807
LXF-289; first compound 0.03162 µM
  relative viability: 0.778
LXF-289; first compound 0.1 µM
  relative viability: 0.755
LXF-289; first compound 0.3162 µM
  relative viability: 0.825
LXF-289; first compound 1 µM
  relative viability: 0.81
NCI-H1666; first compound 0.01 µM
  relative viability: 0.864
NCI-H1666; first compound 0.03162 µM
  relative viability: 0.922
NCI-H1666; first compound 0.1 µM
  relative viability: 0.847
NCI-H1666; first compound 0.3162 µM
  relative viability: 0.839
NCI-H1666; first compound 1 µM
  relative viability: 0.79
NCI-H1755; first compound 0.01 µM
  relative viability: 0.785
NCI-H1755; first compound 0.03162 µM
  relative viability: 0.691
NCI-H1755; first compound 0.1 µM
  relative viability: 0.783
NCI-H1755; first compound 0.3162 µM
  relative viability: 0.673
NCI-H1755; first compound 1 µM
  relative viability: 0.685
NCI-H1915; first compound 0.01 µM
  relative viability: 0.672
NCI-H1915; first compound 0.03162 µM
  relative viability: 0.796
NCI-H1915; first compound 0.1 µM
  relative viability: 0.663
NCI-H1915; first compound 0.3162 µM
  relative viability: 0.647
NCI-H1915; first compound 1 µM
  relative viability: 0.65
NCI-H1975; first compound 0.01 µM
  relative viability: 0.718
NCI-H1975; first compound 0.03162 µM
  relative viability: 0.73
NCI-H1975; first compound 0.1 µM
  relative viability: 0.792
NCI-H1975; first compound 0.3162 µM
  relative viability: 0.874
NCI-H1975; first compound 1 µM
  relative viability: 0.752
NCI-H2023; first compound 0.01 µM
  relative viability: 0.456
NCI-H2023; first compound 0.03162 µM
  relative viability: 0.536
NCI-H2023; first compound 0.1 µM
  relative viability: 0.424
NCI-H2023; first compound 0.3162 µM
  relative viability: 0.394
NCI-H2023; first compound 1 µM
  relative viability: 0.411
NCI-H2085; first compound 0.01 µM
  relative viability: 0.946
NCI-H2085; first compound 0.03162 µM
  relative viability: 0.768
NCI-H2085; first compound 0.1 µM
  relative viability: 0.756
NCI-H2085; first compound 0.3162 µM
  relative viability: 0.827
NCI-H2085; first compound 1 µM
  relative viability: 0.8
NCI-H2126; first compound 0.01 µM
  relative viability: 0.709
NCI-H2126; first compound 0.03162 µM
  relative viability: 0.707
NCI-H2126; first compound 0.1 µM
  relative viability: 0.706
NCI-H2126; first compound 0.3162 µM
  relative viability: 0.772
NCI-H2126; first compound 1 µM
  relative viability: 0.702
NCI-H3122; first compound 0.01 µM
  relative viability: 1.02
NCI-H3122; first compound 0.03162 µM
  relative viability: 0.911
NCI-H3122; first compound 0.1 µM
  relative viability: 0.907
NCI-H3122; first compound 0.3162 µM
  relative viability: 0.987
NCI-H3122; first compound 1 µM
  relative viability: 0.934
NCI-H322M; first compound 0.01 µM
  relative viability: 0.599
NCI-H322M; first compound 0.03162 µM
  relative viability: 0.646
NCI-H322M; first compound 0.1 µM
  relative viability: 0.282
NCI-H322M; first compound 0.3162 µM
  relative viability: 0.579
NCI-H322M; first compound 1 µM
  relative viability: 0.43
NCI-H358; first compound 0.01 µM
  relative viability: 0.83
NCI-H358; first compound 0.03162 µM
  relative viability: 0.878
NCI-H358; first compound 0.1 µM
  relative viability: 0.881
NCI-H358; first compound 0.3162 µM
  relative viability: 0.844
NCI-H358; first compound 1 µM
  relative viability: 0.781
NCI-H441; first compound 0.01 µM
  relative viability: 0.679
NCI-H441; first compound 0.03162 µM
  relative viability: 0.617
NCI-H441; first compound 0.1 µM
  relative viability: 0.537
NCI-H441; first compound 0.3162 µM
  relative viability: 0.614
NCI-H441; first compound 1 µM
  relative viability: 0.648
UMC-11; first compound 0.01 µM
  relative viability: 0.472
UMC-11; first compound 0.03162 µM
  relative viability: 0.507
UMC-11; first compound 0.1 µM
  relative viability: 0.496
UMC-11; first compound 0.3162 µM
  relative viability: 0.526
UMC-11; first compound 1 µM
  relative viability: 0.45
